# Measured values from US12390439B2, “Oral liquid formulation of methocarbamol” (Liqmeds Worldwide Limited, priority 2023, dated 2025).
# What was measured:
# Assay type in all cases: physicochemical
# [1] = Solubility of methocarbamol in different vehicles at various pH conditions
# Experimental: Solubility of Methocarbamol was carried out in different vehicles at various pH conditions, and the results are presented in Table 1.
# [2] = Photostability study of formulation B3
# [3] = Drug-excipient compatibility study: related substance; details: higher temperature conditions
# Experimental: Accurately weighed quantity of methocarbamol, and individual excipients were mixed as per ratio mentioned in the drug-excipient compatibility table. Mixtures were filled in glass vials, plugged using LDPE plugs which were manually punctured.
# Filled glass vials were exposed to temperature and humidity conditions i.e. 60° C.±2° C., and 40° C.±2° C./75±5% RH for 4 weeks.
# [4] = API in Protected Condition (Control)
smiles,measurement,setting,value
COc1ccccc1OCC(O)COC(N)=O (stereo not drawn) [methocarbamol],Vol. req. to dissolve 1500 mg API,[1]; 0.1N HCl,100.00 mL
same,solubility,"[1]; 0.1N HCl, simulated gastric fluid",15.5 mg/mL
same,Vol. req. to dissolve 1500 mg API,[1]; Purified water,98.02 mL
same,Solubility (conclusion),[1]; all pH media,high solubility
same,solubility,"[1]; aqueous buffer, pH 4.5 acetate buffer",16.9 mg/mL
same,solubility,"[1]; aqueous buffer, pH 6.8 phosphate buffer",14.1 mg/mL
same,solubility,"[1]; aqueous buffer, pH 7.2 phosphate buffer",13.6 mg/mL
same,Vol. req. to dissolve 1500 mg API,[1]; pH 4.5 acetate buffer,88.96 mL
same,Vol. req. to dissolve 1500 mg API,[1]; pH 6.8 phosphate buffer,106.38 mL
same,Vol. req. to dissolve 1500 mg API,[1]; pH 7.2 phosphate buffer,109.96 mL
same,solubility,"[1]; purified water, water",15.3 mg/mL
same,Assay (%),[2]; [4],99.2%
same,Related Substances: Guaifenesin,[2]; [4],0.01%
same,Related Substances: Methocarbamol Isomer,[2]; [4],0.01%
same,Related Substances: Total Impurities,[2]; [4],0.02%
same,Assay (%),[2]; API in open Exposed Condition,99.8%
same,Related Substances: Guaifenesin,[2]; API in open Exposed Condition,0.01%
same,Related Substances: Methocarbamol Isomer,[2]; API in open Exposed Condition,0.02%
same,Related Substances: Total Impurities,[2]; API in open Exposed Condition,0.03%
same,Assay (%),"[2]; API, Initial",99.3%
same,Related Substances: Guaifenesin,"[2]; API, Initial",0.03%
same,Related Substances: Total Impurities,"[2]; API, Initial",0.03%
same,Description,"[2]; Methocarbamol API (Batch no: A), Initial, open Exposed Condition and Protected Condition (Control)",White Bulky Powder odorless
same,Stability of methocarbamol in aqueous phase,[3],probable instability
